Legend:
EGFR = molecular target: T1, EGFR (Homo sapiens, UniProt P00533); assay: EGFR Kinase Assay; format: biochemical; conditions: test concentration of 2 μM; read-out: EGFR percent inhibition
T1 construct: The intracellular portion of EGFR started at nucleotide 2189 (corresponding to amino acid 667) and ended at the termination codon; made in house; host or cells: Sf9 insect cells (baculovirus)
Outline: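 GST-fused EGFR intracellular domain (aa 667 to end), Sf9-expressed, phosphorylating biotinylated polyGluTyr with 5 μM ATP plus γ-33P ATP in Tris pH 8.0, MgCl2, vanadate, 1 mM DTT; 1 h, 30 °C, streptavidin Flashplate scintillation read. Triplicate 16-point half-log series from 200 uM; IC50 from % inhibition vs log concentration, else % inhibition at 2 μM.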

VEGF-R2 = molecular target: T2, VEGF-R2 (Rattus norvegicus, UniProt O08775); assay: VEGF-R2 Screening Assay; format: biochemical; conditions: test concentration of 1 μM; read-out: VEGF-R2 percent inhibition
T2 construct: polyhistidine (N)

Aurora-A = molecular target: T3, Aurora-A (Mus musculus, UniProt P97477); assay: Aurora-A Screening Assay; format: biochemical, murine; conditions: test concentration of 1 μM; read-out: Aurora-A percent inhibition
T3 construct: followed by the full length protein encoding the murine Aurora-A; polyhistidine (N); made in house; host or cells: sf9 insect cells
T3 sequence (P97477 1-395): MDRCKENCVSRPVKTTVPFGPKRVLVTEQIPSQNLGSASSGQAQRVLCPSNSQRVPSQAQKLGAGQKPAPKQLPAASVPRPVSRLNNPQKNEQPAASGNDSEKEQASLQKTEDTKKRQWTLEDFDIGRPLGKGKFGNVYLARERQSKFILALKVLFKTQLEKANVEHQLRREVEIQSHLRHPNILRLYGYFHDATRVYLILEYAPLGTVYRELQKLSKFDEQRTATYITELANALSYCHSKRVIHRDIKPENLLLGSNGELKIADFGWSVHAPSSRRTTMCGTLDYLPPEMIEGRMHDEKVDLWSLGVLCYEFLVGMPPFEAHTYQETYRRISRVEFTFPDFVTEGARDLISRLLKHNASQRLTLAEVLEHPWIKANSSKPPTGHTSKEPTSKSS

HER-2 = molecular target: T4, HER-2 (Homo sapiens, UniProt P04626); assay: HER-2 Kinase Assay; format: biochemical; conditions: test concentration of 1 μM; read-out: HER-2 percent inhibition
T4 construct: the nucleotides encoding amino acids 679 to 1255 of HER-2; purchased Proqinase (Freiburg, Germany)
Outline: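 GST-HIS6-thrombin fusion of HER-2 residues 679–1255, assayed with biotinylated polyGluTyr, 1 μM ATP plus γ-33P-ATP, Mg2+, Mn2+ and vanadate in Hepes pH 7.5 for 1 h at 30 °C. Incorporation read by streptavidin Flashplate scintillation counting; IC50 values, or % inhibition at 1 μM.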

T4 sequence (P04626 679-1255): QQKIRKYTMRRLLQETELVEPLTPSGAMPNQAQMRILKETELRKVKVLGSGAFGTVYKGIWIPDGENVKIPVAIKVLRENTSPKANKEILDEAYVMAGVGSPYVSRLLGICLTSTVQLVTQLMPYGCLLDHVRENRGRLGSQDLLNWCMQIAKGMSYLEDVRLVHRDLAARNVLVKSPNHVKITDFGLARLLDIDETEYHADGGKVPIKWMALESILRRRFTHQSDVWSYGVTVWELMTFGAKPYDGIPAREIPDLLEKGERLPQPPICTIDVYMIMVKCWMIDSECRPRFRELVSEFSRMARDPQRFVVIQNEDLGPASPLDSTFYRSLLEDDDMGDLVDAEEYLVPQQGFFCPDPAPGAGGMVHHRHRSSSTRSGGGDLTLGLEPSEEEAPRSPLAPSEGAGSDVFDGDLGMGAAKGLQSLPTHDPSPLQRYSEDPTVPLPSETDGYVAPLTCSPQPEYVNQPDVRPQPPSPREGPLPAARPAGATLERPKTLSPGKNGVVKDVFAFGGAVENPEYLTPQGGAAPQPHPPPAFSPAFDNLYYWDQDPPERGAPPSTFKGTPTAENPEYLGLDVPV
T2 sequence (O08775 786-1343): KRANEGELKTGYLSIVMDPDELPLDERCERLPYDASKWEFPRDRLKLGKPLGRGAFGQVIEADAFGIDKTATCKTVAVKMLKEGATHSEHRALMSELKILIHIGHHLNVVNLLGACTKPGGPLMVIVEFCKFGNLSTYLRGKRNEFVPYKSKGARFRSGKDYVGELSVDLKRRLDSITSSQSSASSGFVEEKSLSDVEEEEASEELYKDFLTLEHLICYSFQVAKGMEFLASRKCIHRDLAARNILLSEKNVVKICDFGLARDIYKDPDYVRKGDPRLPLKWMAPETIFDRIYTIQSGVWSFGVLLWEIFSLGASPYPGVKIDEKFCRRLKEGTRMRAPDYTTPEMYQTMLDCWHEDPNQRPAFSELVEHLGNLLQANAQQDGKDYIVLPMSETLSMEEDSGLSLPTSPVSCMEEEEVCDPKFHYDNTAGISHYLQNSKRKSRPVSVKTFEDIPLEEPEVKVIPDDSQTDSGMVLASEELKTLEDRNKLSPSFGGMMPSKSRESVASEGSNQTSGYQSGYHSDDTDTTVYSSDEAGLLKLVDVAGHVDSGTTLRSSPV
T1 sequence (P00533 669-1210 limits assumed): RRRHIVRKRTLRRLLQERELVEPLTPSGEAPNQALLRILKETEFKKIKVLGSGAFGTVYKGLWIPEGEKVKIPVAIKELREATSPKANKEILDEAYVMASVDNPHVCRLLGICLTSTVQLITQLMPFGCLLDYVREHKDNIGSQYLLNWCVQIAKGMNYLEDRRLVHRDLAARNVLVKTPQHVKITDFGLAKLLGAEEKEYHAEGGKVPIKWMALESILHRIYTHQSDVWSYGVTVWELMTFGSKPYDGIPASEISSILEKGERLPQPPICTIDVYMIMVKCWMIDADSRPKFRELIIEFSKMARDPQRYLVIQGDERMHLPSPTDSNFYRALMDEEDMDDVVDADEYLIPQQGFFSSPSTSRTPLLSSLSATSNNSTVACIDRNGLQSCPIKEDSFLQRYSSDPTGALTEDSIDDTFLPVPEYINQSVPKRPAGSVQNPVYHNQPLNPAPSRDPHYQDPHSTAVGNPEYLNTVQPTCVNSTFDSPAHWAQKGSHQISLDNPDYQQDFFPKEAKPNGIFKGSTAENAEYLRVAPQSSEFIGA

inhibition at 2 µM (EGFR): 10% | inhibition at 1 µM (VEGF-R2): -22% | inhibition at 1 µM (Aurora-A): 3% | inhibition at 1 µM (HER-2): 11%
Compound: N#Cc1cnc2sc(C(=O)Nc3ccccn3)c3c2c1N(c1c(Cl)ccc2c1OCO2)C(=O)N3 [Cpd 37, 5-(5-chloro-benzo[1,3]dioxol-4-yl)-6-cyano-4-oxo-4,5-dihydro-3H-1-thia-3,5,8-triaza-acenaphthylene-2-carboxylic acid pyridin-2-ylamide]

From patent publication US7427625B2, “Substituted thiatriazaacenaphthylene-6-carbonitrile kinase inhibitors” (Janssen Pharmaceutica, N.V., priority 2006, dated 2008)
